Values joined by “and” are separate entries in the source; they are usually repeats but may differ in a detail not shown here. Equal entries are not always repeated. Where two headings read alike, the source gives them in different places.
Legend:
NMDA receptor = assay: Inhibition of NMDA/glycine-induced increases in intracellular calcium in cultured rat cerebellar granule cells (RCGC); assay type: cell-based; settings: NMDA/glycine-induced increases in intracellular calcium, cultured rat cerebellar granule cells; read-out: IC50 (μM) vs. NMDA
[1] = biological target: NMDA receptor-ionophore complex (site labeled by [3H]MK-801); assay: Inhibition of [3H]MK-801 binding in rat cortical/hippocampal washed membrane preparations; settings: read-out: IC50 (μM) vs. [3H]MK-801
[2] = rat cortical/hippocampal washed membranes

| Compound | IC50 (NMDA receptor) | IC50 [1, 2] [µM] | IC50 [1] [µM] |
| --- | --- | --- | --- |
| NCC(c1ccc(F)cc1)c1ccc(F)cc1 [Compound 99] | > 100 µM | 105 | – |
| NCCCC(c1cccc(F)c1)c1cccc(F)c1 [Compound 100, 4,4-bis(3-fluorophenyl)-1-butylamine] | 0.602 µM | 3.2 | – |
| NCCC(c1cccc(O)c1)c1cccc(F)c1 (stereo not drawn) [Compound 101] | 0.912 µM | 2 | – |
| Fc1cccc(C(c2cccc(F)c2)C2CCNC2)c1 (stereo not drawn) [Compound 102] | 1.01 µM | 3.3 | – |
| NCCC(c1cccc(F)c1)c1ccccc1O (stereo not drawn) [Compound 103, 3-(2-hydroxyphenyl)-3-(3-fluorophenyl)-1-propylamine] | 0.38 µM | 0.661 | – |
| NCCCC(c1ccc(F)cc1)c1ccc(F)cc1 [Compound 104] | 7.98 µM | > 10 | – |
| CN(CCC(c1cccc(F)c1)c1cccc(F)c1)Cc1ccccc1 [Compound 105] | 1.03 µM | > 3 | – |
| CNCC=C(c1cccc(F)c1)c1cccc(F)c1 [Compound 106] | 0.767 µM | 1.31 | – |
| CNCCC(c1ccccc1)c1cccc(F)c1 (stereo not drawn) [Compound 108, N-methyl-3-(3-fluorophenyl)-3-phenyl-1-propylamine] | 1.06 µM | 0.942 | – |
| Fc1cccc(C(=C2CCCNC2)c2cccc(F)c2)c1 [Compound 109] | 1.95 µM | 1.08 | – |
| Fc1cccc(C(=C2CCNCC2)c2cccc(F)c2)c1 [Compound 110] | 42.7 µM | 13.3 | – |
| Fc1cccc(C(c2cccc(F)c2)C2CCCNC2)c1 (stereo not drawn) [Compound 111] | 0.645 µM and 0.79 µM | 0.167 | – |
| Fc1cccc(C(c2cccc(F)c2)C2CCNCC2)c1 [Compound 112] | 28 µM and 28.9 µM | 21 | – |
| COc1cccc(C(CCN)c2cccc(OC)c2)c1 [Compound 115, 3,3-bis(3-methoxyphenyl)-1-propylamine] | 1.4 µM and 1.9 µM | 1 | – |
| NCCN(c1ccccc1)c1ccccc1 [Compound 117] | 19.6 µM | 6 | – |
| NCCC(Oc1ccccc1)c1cccc(F)c1 (stereo not drawn) [Compound 118] | 0.409 µM | 0.24 | – |
| COc1ccccc1OC(CCN)c1cccc(F)c1 (stereo not drawn) [Compound 121] | 0.656 µM | 0.67 | – |
| CN(C)CCC(c1cccc(F)c1)c1cccc(F)c1 [Compound 123, N,N-dimethyl-3,3-bis(3-fluorophenyl)-1-propylamine] | 9.6 µM | > 3 | – |

| Compound | IC50 (NMDA receptor) | IC50 [1, 2] [µM] | IC50 [1] [µM] |
| --- | --- | --- | --- |
| NCCCc1ccccc1-c1cccc(F)c1 [Compound 124] | 3.5 µM | 14.3 | – |
| NCCC(Cc1ccccc1)c1ccccc1 (stereo not drawn) [Compound 125] | 1.7 µM | 6.7 | – |
| NCC(Cc1cccc(F)c1)Cc1cccc(F)c1 [Compound 126] | 0.398 µM | 6 | – |
| NCCCc1ccccc1Cc1ccccc1 [Compound 127] | 1.2 µM | 17.5 | – |
| NCCc1ccccc1Cc1ccccc1 [Compound 128] | 0.646 µM | – | 5.5 |
| NCCc1ccccc1Oc1ccccc1 [Compound 132] | 1.3 µM | 6.4 | – |
| NCC(Cc1ccccc1)c1ccccc1 (stereo not drawn) [Compound 133] | 0.76 µM | 3 | – |
| COc1cccc(C(CCN)c2cccc(Cl)c2)c1 (stereo not drawn) [Compound 136] | 0.139 µM | 0.706 | – |
| NCC=C(c1cccc(F)c1)c1cccc(F)c1 [Compound 139, 3,3-bis(3-fluorophenyl)-prop-2-ene-1-amine] | 1.97 µM and 1.4 µM | 5.6 | – |
| COc1cccc(/C(=C\CN)c2cccc(F)c2)c1 [Compound 141] | 4.26 µM | 8.97 | – |
| CNCCC(c1cccc(F)c1)c1cccc(OC)c1 (stereo not drawn) [Compound 142] | 1.01 µM | 1.54 | – |
| CNCCC(Oc1cccc(F)c1)c1cccc(F)c1 (stereo not drawn) [Compound 145] | 0.098 µM | 0.626 | – |
| NCCC(Oc1ccccc1)c1ccccc1 (stereo not drawn) [Compound 146] | 0.829 µM | 0.372 | – |
| NCCC(Oc1ccccc1)c1cccc(Cl)c1 (stereo not drawn) [Compound 148] | 0.549 µM | 0.373 | – |
| NCCC(Oc1cccc(Cl)c1)c1cccc(Cl)c1 (stereo not drawn) [Compound 149] | 0.085 µM | 0.15 | – |
| NCCC(Oc1cccc(F)c1)c1cccc(Cl)c1 (stereo not drawn) [Compound 150] | 0.195 µM | 0.351 | – |
| CCCC(NCCC(c1ccccc1)c1ccccc1)c1ccccc1 (stereo not drawn) [Compound 157] | 0.142 µM | 23.2 | – |
| CC(C)C(NCCC(c1ccccc1)c1ccccc1)c1ccccc1 (stereo not drawn) [Compound 158] | 0.351 µM | 39.6 | – |

Source: US6750244B2, “Compounds active at a novel site on receptor-operated calcium channels useful for treatment of neurological disorders and diseases” (NPS Pharmaceuticals, Inc., priority 1993, dated 2004)
